The source of these data is patent US20260265267A1, “NOVEL COMPOUNDS WITH MTORC2-INHIBITORY ACTIVITY AND USES THEREOF” (Aliad Biopharma, priority 2023, published 2026).

Assay [1] has as its system mTORC2. In words: mTORC2 inhibitory activity in primary cultured cerebral neurons (Akt Ser473 phosphorylation). The following applies: for effect on Akt Ser473 phosphorylation / decrease in AKT Ser473 phosphorylation at 24 hours: 500 nM or 100 nM; for effect on Akt Ser473 phosphorylation / pSer473-AKT/AKT (% control): 24 hours. It is filed as cell-based, SD mice. How it is done:
Specifically, primary neural cells were cultured from the cerebral cortex of E16 embryos of SD mice with a gestational age 16-day (Orient Bio). The extracted brain was separated into the left and right hemispheres, the meninges were removed, and the brains were treated with trypsin in Ca^2+/Mg^2+-free HBSS solution.
The time-dependent changes in Akt Ser473 phosphorylation, Akt Thr308 phosphorylation, and LC3-II levels were measured by Western blot analysis.

In assay [2] the test system is mTORC1. The assay is described as follows: mTORC1 inhibitory activity in primary cultured cerebral neurons (S6K Thr389 phosphorylation). It is filed as cell-based, SD mice. The following applies: for pThr389-S6K/S6K (% control): 24 hours.
The test system of assay [3] is 5×FAD Alzheimer's disease model mice. In words: Morris water maze test in 5×FAD mice (spatial perceptive ability). It is filed as in vivo. The following applies: for Morris water maze time spent swimming in the target quadrant, % of the normal control level / Morris water maze time spent swimming in the target quadrant, increase compared to 5×FAD-DMSO mice: 14 days (FIG. 8c); for Morris water maze time spent in the target quadrant, % of the normal control level / Morris water maze time spent in the target quadrant, increase compared to 5×FAD-DMSO mice: 14 days (FIG. 6b). On the procedure:
(§1) In order to evaluate the efficacy of HN2210, HN2213, and HN2313 on Alzheimer's disease-related symptoms, specifically regarding 1) memory and cognitive impairment, 2) amyloid plaques, 3) neurofibrillary tangles (NFTs), and 4) brain inflammation, an in vivo efficacy assessment of HN2210, HN2213 and HN2313 was conducted using 5×FAD Alzheimer's disease model mice. The 5×FAD mice were purchased from Jackson Lab, USA (Cat #034840-JAX) and crossed once with C57bl6 mice to produce F1 heterozygous offspring (Het). The compound was administered via intraperitoneal injection to 6-month-old 5×FAD Het mice, followed by behavioral testing. The normal control mice, which were littermates of the 5×FAD Het mice, were aged to 6 months and received DMSO injection at the same volume.
Specifically, a 50 cm deep water tank filled with water (25.0±1.0° C.) was divided into four equal quadrants, and a platform (12 cm diameter) was placed 3 mm below the water surface in the center of one quadrant. The training test consisted of a 1-minute free swimming practice without the platform foothold on the first day and a four days of training, during which the animal used environmental cues to locate the hidden platform foothold, with four trials per day. The following day, the platform was removed, and the time the experimental animal spent in the target quadrant was measured (probe trial). Videos were recorded and analyzed using the Ethovision video tracking system (Noldus Information Technology, Wageningen, Netherlands). The data included the time spent swimming in the target quadrant and the number of crossings over the virtual platform's previous position.

For assay [4] the test system is unchanged. In words: Passive avoidance test in 5×FAD mice (long-term memory). The format is in vivo. On the procedure: as §1
Specifically, to mice trained to avoid bright light three times daily, an electric foot shock (1 mA, 300 g) was applied for 3 seconds in a dark room at the same time on the next day. After 24 hours, the mice were placed again in the same room, and the avoidance response by light, that is, the time taken to move from the bright room to the dark room was measured. At 24 hours after habituation training, the mice were placed back into the bright room, and the latency time for entering the dark room was recorded over a period of 720 seconds.

Assay [5] deals with tau aggregates in the brain of 5×FAD mice. The assay is described as follows: Tau aggregate removal in the brain of 5×FAD mice (AT8 antibody staining). It is filed as in vivo. The following applies: 5 mg/kg, 14 days. On the procedure:
as §1
In order to assess the neurofibrillary tangle removal effect of HN2210, HN2213, and HN2313 compounds in the brains of Alzheimer's disease model mice, the following test was conducted using 5×FAD-DMSO mice without compound treatment, 5×FAD mice treated with HN2210, HN2213, or HN2313 compounds, and normal mice as controls.
Specifically, AT8 antibody stains hyperphosphorylated Tau protein that constitutes tau aggregates. Therefore, tau aggregates formed in the hippocampus of 5×FAD mouse can be measured using immunostaining with the AT8 antibody. Brain slices were triple-stained with the AT8 antibody, MAP2 which is a neuronal marker, and DAPI to label nuclei, and the dentate gyrus region of the hippocampus was observed under a confocal scanning microscope.

The test system of assay [6] is activated microglia in the brain of 5×FAD mice. In words: Anti-inflammatory effect in the brain of 5×FAD mice (IBA-1 antibody staining). The following applies: 5 mg/kg, 14 days. The format is in vivo. How it is done:
as §1
In order to assess the anti-inflammatory effect of HN2210, HN2213, and HN2313 compounds in the brains of Alzheimer's disease model mice, the following test was conducted using 5×FAD-DMSO mice without compound treatment, 5×FAD mice treated with HN2210, HN2213, or HN2313 compounds, and normal mice as controls. Specifically, brain inflammation is mediated by the activation of microglia, which can be stained using the IBA-1 antibody. Therefore, inflammation in the hippocampus of 5×FAD mouse can be assessed using immunostaining with the IBA-1 antibody. Brain slices were double-stained with the IBA-1 antibody and DAPI to label nuclei, and the dentate gyrus region of the hippocampus was observed under a confocal scanning microscope.

Where [7] appears, read: 5 mg/kg, 14 days / 2 weeks (FIG. 7).

As for `O=C1c2cc(F)c(N3CCOCC3)cc2COc2cc3c(cc21)OCO3` [HN2210, 8-(morpholino)-9-fluoro[2]benzoxepino[3,4-f]-1,3-benzodioxol-11(6H)-one], the “effect on Akt Ser473 phosphorylation” value in assay [1] is “reduce Akt Ser473 phosphorylation”. Besides, the “decrease in AKT Ser473 phosphorylation at 24 hours” value in assay [1] was determined as 67%. For the same molecule, in assay [1] (500 nM), the “pSer473-AKT/AKT (% control)” value was 33 % control. In addition, the “decrease in AKT Ser473 phosphorylation from 30 minutes to 6 hours” value in assay [1] (from 30 minutes to 6 hours) was “approximately 50%”. The “effect on S6K Thr389 phosphorylation” value in assay [2] (500 nM or 100 nM, time course to 24 hours (HN2304: from 6 to 24 hours)) is “reduced p70S6K Thr389 phosphorylation”. In addition, the “pThr389-S6K/S6K (% control)” value in assay [2] (500 nM) came to 23 % control. Besides, in assay [2] (at 3 hours), the “increase in S6K Thr389 phosphorylation at 3 hours” value amounted to 49%. Moreover, the “decrease in S6K Thr389 phosphorylation at 24 hours” value in assay [2] (at 24 hours) was found to be 77%. For the same molecule, the “Morris water maze number of target crossings, % of the normal control level” value in assay [3] (0.2 mg/kg, 14 days (FIG. 8b)) is listed as “approximately 30%”; in assay [3] (1 mg/kg, 14 days (FIG. 8b)) it was around 63%; in assay [3] (5 mg/kg, 14 days (FIG. 6a)), “approximately 59%”; in assay [3] (5 mg/kg, 14 days (FIG. 8b)), around 86%. The “Morris water maze number of target crossings, increase compared to 5×FAD-DMSO mice” value in assay [3] (0.2 mg/kg, 14 days (FIG. 8b)) worked out at 2.02 fold; in assay [3] (1 mg/kg, 14 days (FIG. 8b)), 4.27 fold; in assay [3] (5 mg/kg, 14 days (FIG. 6a)), 3.96 fold; in assay [3] (5 mg/kg, 14 days (FIG. 8b)), 5.84 fold. In addition, the “Morris water maze time spent swimming in the target quadrant, % of the normal control level” value is “approximately 87%” in assay [3] (0.2 mg/kg), around 85% in assay [3] (1 mg/kg) and around 96% in assay [3] (5 mg/kg). Further, the “Morris water maze time spent swimming in the target quadrant, increase compared to 5×FAD-DMSO mice” value in assay [3] (0.2 mg/kg) came to 2.14 fold; in assay [3] (1 mg/kg), 2.07 fold; in assay [3] (5 mg/kg), 2.34 fold. Besides, the “Morris water maze time spent in the target quadrant, % of the normal control level” value in assay [3] (5 mg/kg) is listed as “approximately 96%”. Further, the “Morris water maze time spent in the target quadrant, increase compared to 5×FAD-DMSO mice” value in assay [3] (5 mg/kg) is 1.74 fold. The “passive avoidance latency time, % of the normal control level” value (“passive avoidance latency time, %” for short) is recorded as “approximately 56%” in assay [4] (0.2 mg/kg, 14 days (FIG. 8d)); around 83% in assay [4] (1 mg/kg, 14 days (FIG. 8d)); around 97% in assay [4] (5 mg/kg, 14 days (FIG. 8d)); “approximately 84%” in assay [4] (setting [7]). Further, the “passive avoidance latency time, increase compared to 5×FAD-DMSO mice” value (from here on “passive avoidance latency time, increase”) stood at 2.97 fold in assay [4] (0.2 mg/kg, 14 days (FIG. 8d)); 4.39 fold in assay [4] (1 mg/kg, 14 days (FIG. 8d)); 5.16 fold in assay [4] (5 mg/kg, 14 days (FIG. 7)); 5.16 fold in assay [4] (5 mg/kg, 14 days (FIG. 8d)). Besides, in assay [5], the “reduction of AT8 antibody signals in the dentate gyrus compared to the 5×FAD-DMSO group” value (“reduction of AT8 antibody signals” for short) came to 61%. Further, the “reduction of IBA-1 antibody signals in the dentate gyrus compared to the 5×FAD-DMSO group” value (from here on “reduction of IBA-1 antibody signals”) in assay [6] was 50%.
For `O=C1c2cc(F)c(NCc3ccccc3)cc2COc2cc3c(cc21)OCO3` [HN2213, 8-(benzylamino)-9-fluoro[2]benzoxepino[3,4-f]-1,3-benzodioxol-11(6H)-one], in assay [1], the “selectivity for mTORC2 over mTORC1” value is “selective mTORC2 inhibitors”, the “effect on Akt Ser473 phosphorylation” value is listed as “reduce Akt Ser473 phosphorylation” and the “decrease in AKT Ser473 phosphorylation at 24 hours” value came out at 62%. The “pSer473-AKT/AKT (% control)” value in assay [1] (500 nM) came to 38 % control. In addition, in assay [2] (500 nM), the “pThr389-S6K/S6K (% control)” value is 137 % control. Further, the “increase in S6K Thr389 phosphorylation in a time-dependent manner” value in assay [2] (time course to 24 hours) worked out at 37%. For the same molecule, in assay [3] (5 mg/kg, 14 days (FIG. 6a)), the “Morris water maze number of target crossings, % of the normal control level” value is given as around 60% and the “Morris water maze number of target crossings, increase compared to 5×FAD-DMSO mice” value came out at 4 fold. In addition, in assay [3] (5 mg/kg), the “Morris water maze time spent in the target quadrant, % of the normal control level” value is around 105% and the “Morris water maze time spent in the target quadrant, increase compared to 5×FAD-DMSO mice” value amounted to 1.91 fold. In addition, the “passive avoidance latency time, increase” value in assay [4] (5 mg/kg, 14 days (FIG. 7)) was found to be 4.52 fold. For the same molecule, the “passive avoidance latency time, %” value in assay [4] (setting [7]) is around 74%. Besides, in assay [5], the “reduction of AT8 antibody signals” value is given as 59%. Moreover, the “reduction of IBA-1 antibody signals” value in assay [6] worked out at 24%.
For `O=C1c2cc(F)c(NC3CCCC3)cc2COc2cc3c(cc21)OCO3` [HN2313, 8-(cyclopentylamino)-9-fluoro-[1,3]dioxolo[4′,5′:4,5]benzo[1,2-b]benzo[e]oxepin-11(6H)-one], in assay [1], the “selectivity for mTORC2 over mTORC1” value is listed as “selective mTORC2 inhibitors”, the “effect on Akt Ser473 phosphorylation” value is “reduce Akt Ser473 phosphorylation” and the “decrease in AKT Ser473 phosphorylation at 24 hours” value came to 66%. The “pSer473-AKT/AKT (% control)” value in assay [1] (100 nM) is recorded as 34 % control. Moreover, the “AKT Ser473 phosphorylation from 1 to 12 hours” value in assay [1] (from 1 to 12 hours) is on record as “increased AKT Ser473 phosphorylation significantly”. The “pThr389-S6K/S6K (% control)” value in assay [2] (100 nM) was 141 % control. In addition, the “increase in S6K Thr389 phosphorylation from 1 to 6 hours” value in assay [2] (from 1 to 6 hours) is given as 2~3 fold. In assay [3] (5 mg/kg, 14 days (FIG. 6a)), the “Morris water maze number of target crossings, % of the normal control level” value is around 82% and the “Morris water maze number of target crossings, increase compared to 5×FAD-DMSO mice” value was 5.5 fold. For the same molecule, in assay [3] (5 mg/kg), the “Morris water maze time spent in the target quadrant, % of the normal control level” value is listed as around 84% and the “Morris water maze time spent in the target quadrant, increase compared to 5×FAD-DMSO mice” value was found to be 1.53 fold. Further, the “passive avoidance latency time, increase” value in assay [4] (5 mg/kg, 14 days (FIG. 7)) is given as 5.86 fold. Besides, the “passive avoidance latency time, %” value in assay [4] (setting [7]) is given as around 96%. In assay [5], the “reduction of AT8 antibody signals” value was 49%. Also, the “reduction of IBA-1 antibody signals” value in assay [6] is recorded as 50%.
